Test system: CHO cell lines (Cell line A and Cell line B)
Format: cell-based, Chinese Hamster
Method: To test for the effect of toxicity of high polyoxypropylene-polyoxyethylene block copolymer (LUTROL® F68) concentration on cells, two CHO cell lines (Cell line A and Cell line B) expressing different monoclonal antibodies were carried over 10 passages (at 3 days/passage), at an initial seeding density of 8×10^5 cells/ml in 250 ml shake flasks with cell culture media containing 1, 2, 3, 4 or 5 g/L polyoxypropylene-polyoxyethylene block copolymer (LUTROL® F68).
An overall increase in cell density was observed (3.4-6.5×10^6 cells/ml) after 3 days. Viable cell density was normalized to the 1 g/L condition to enable comparison between the different polyoxypropylene-polyoxyethylene block copolymer (LUTROL® F68) concentrations.
The cells grown in media containing 3, 4 or 5 g/L polyoxypropylene-polyoxyethylene block copolymer (LUTROL® F68) were consistently higher over the passages, in which a 10% increase in cell density was measured compared to the 1 g/L condition (p<0.01) (FIG. 7A). The viability was also greater for the higher polyoxypropylene-polyoxyethylene block copolymer (LUTROL® F68) cultures (mean >95%) (FIG. 7B). […] The variation of viable cell density, % viability.

poloxamer 188 [LUTROL® F68]
cell diameter compared to the 1 g/L condition: increased slightly
increase in cell density compared to the 1 g/L condition: 10%
viability (mean): > 95%
